Reference: paper PMC9585939, “Unveiling a family of spiro-β-lactams with anti-HIV and antiplasmodial activity via phosphine-catalyzed [3+2] annulation of 6-alkylidene-penicillanates and allenoates” (Frontiers in Chemistry, 2022)

What was measured:
[1] = Cellular viability assay (alamarBlue) in TZM-bl cells; format: cell-based; conditions: human, 50% cytotoxic concentration
Method: Before the antiviral activity screening, all spirocyclopentene-β-lactams were assayed for their in vitro cytotoxic activity (CC50) in TZM-bl cells (Table 4).
TZM-bl cells (AIDS Research and Reference Reagent Program, National Institutes of Health, United States) were cultured in complete growth medium consisting of Dulbecco’s Minimal Essential Medium (DMEM) supplemented with 10% fetal bovine serum (FBS), 100 U/ml of penicillin–streptomycin (Gibco/Invitrogen, United States), 1 mM of sodium pyruvate (Gibco/Invitrogen, United States), 2 mM of L-glutamine (Gibco/Invitrogen, United States), and 1 mM of non-essential amino acids (Gibco/Invitrogen, United States). Cell cultures were maintained at 37°C in 5% CO2.
The in vitro cytotoxicity of test compounds was evaluated in TZM-bl cells using alamarBlue cell viability reagent (Life Technologies, United States), according to the instructions of the manufacturer. The cells were cultured in the presence and absence of serial-fold dilutions of the test compounds. Each dilution of each compound was performed in triplicate wells. Medium controls (only growth medium), cell controls (cells without test compound), and cytotoxicity controls (a compound that kills cells) were employed in each assay.

HIV-1 SG3.1 = assay: microbe, parasite or virus in culture; conditions: for Therapeutic index (CC50/IC50): HIV-1, CC50 in TZM-bl cells; for IC50 / IC90 / inhibition at 25 µg/mL: Human immunodeficiency virus 1, TZM-bl; for IC50 / IC90: 48 h; for IC50: read-out: IC50 HIV-1, TZM-bl cells, 48 h; for IC90: read-out: IC90 HIV-1; for inhibition at 25 µg/mL: read-out: MPI (%) 25 μg/mL
Text: The HIV-1 SG3.1 is a reference subtype B strain that uses the CXCR4 coreceptor. It was obtained by transfection of HEK293T cells with pSG3.1 plasmid using jetPRIME transfection reagent (Polyplus-transfection SA, Illkirch, France), according to the instructions of the manufacturer.
Briefly, TZM-bl cells were infected with 200 TCID50 of HIV-1 or HIV-2 in the presence of serial-fold dilutions of the compounds in the growth medium, supplemented with diethylaminoethyl-dextran (DEAE-dextran). After 48 h of infection, luciferase expression was quantified with Pierce Firefly Luc One-Step Glow Assay Kit (ThermoFisher Scientific, Rockford, United States), according to the instructions of the manufacturer. For each compound dilution, the assay was set up in triplicate wells. Virus controls, cell controls, and inhibitors controls (drugs with a known action against each virus) were employed.

SMILES	CC50 [1] [µM]	Therapeutic index (CC50/IC50) (HIV-1 SG3.1)	IC50 (HIV-1 SG3.1) [µM]	IC90 (HIV-1 SG3.1) [µM]	inhibition at 25 µg/mL (HIV-1 SG3.1) [%]	melting point [°C]
C#CCOC(=O)C1=CCC2(C(=O)N3C(C(=O)OC(c4ccccc4)c4ccccc4)C(C)(C)SC32)C1C(=O)c1ccccc1 (centres unmarked) [Compound 9m, (1’R,2’R)-Benzhydryl spiro[(2-benzoyl-3-(prop-2-yn-1-yloxycarbonyl)cyclopent-3-ene)-1’,6-penicillanate]]	60.1	296.11	0.203	0.437	94	62.2 to 64.8
CC1(C)SC2N(C(=O)C23CC=C(C(=O)OCc2ccc(Cl)cc2)C3C(=O)c2ccccc2)C1C(=O)OC(c1ccccc1)c1ccccc1 (centres unmarked) [Compound 9k, (1’R,2’R)-Benzhydryl spiro[(2-benzoyl-3-(4-chlorobenzyloxycarbonyl)cyclopent-3-ene)-1’,6-penicillanate]]	54.1	148.11	0.366	–	84	49.8 to 51.5
CC1(C)SC2N(C(=O)C23C(C(=O)OCc2ccccc2)=CCC3C(=O)c2ccc(Cl)cc2)C1C(=O)OC(c1ccccc1)c1ccccc1 (centres unmarked) [Compound 13b, (1’R,2’R)-Benzhydryl spiro[(2-(4-chlorobenzoyl)-5-benzyloxycarbonylcyclopent-4-ene)-1’,6-penicillanate]]	63.7	–	–	–	0	116.3 to 118.3
CC1(C)SC2N(C(=O)C23CC=C(C(=O)OCc2ccccc2)C3C(=O)c2cc(F)cc(F)c2)C1C(=O)OC(c1ccccc1)c1ccccc1 (centres unmarked) [Compound 12f, (1’R,2’R)-Benzhydryl spiro[(2-(3,5-difluorobenzoyl)-3-benzyloxycarbonylcyclopent-3-ene)-1’,6-penicillanate]]	70.1	531.34	0.132	0.585	88	69.5 to 71.5
CC(COC(=O)C1=CCC2(C(=O)N3C(C(=O)OC(c4ccccc4)c4ccccc4)C(C)(C)SC32)C1C(=O)c1ccccc1)c1ccccc1 (centres unmarked) [Compound 9o, (1’R,2’R)-Benzhydryl spiro[(2-benzoyl-3-(1-phenylpropan-2-yloxycarbonyl)cyclopent-3-ene)-1’,6-penicillanate]]	44.7	–	–	–	0	–
CCCCCOC(=O)C1=CCC2(C(=O)N3C(C(=O)OC(c4ccccc4)c4ccccc4)C(C)(C)SC32)C1C(=O)c1ccccc1 (centres unmarked) [Compound 9e, (1’R,2’R)-Benzhydryl spiro[(2-benzoyl-3-pentoxycarbonylcyclopent-3-ene)-1’,6-penicillanate]]	60.3	–	–	–	44	–
CC(C)CCOC(=O)C1=CCC2(C(=O)N3C(C(=O)OC(c4ccccc4)c4ccccc4)C(C)(C)SC32)C1C(=O)c1ccccc1 (centres unmarked) [Compound 9f, (1’R,2’R)-Benzhydryl spiro[(2-benzoyl-3-isopentoxycarbonylcyclopent-3-ene)-1’,6-penicillanate]]	53.4	–	–	–	21	–
Cc1ccc(COC(=O)C2=CCC3(C(=O)N4C(C(=O)OC(c5ccccc5)c5ccccc5)C(C)(C)SC43)C2C(=O)c2ccc(F)cc2)cc1 (centres unmarked) [Compound 14b, (1’R,2’R)-Benzhydryl spiro[(2-(4-fluorobenzoyl)-3-(4-methylbenzyloxycarbonyl)cyclopent-3-ene)-1’,6-penicillanate]]	78.3	–	0.146	0.338	95	–
CC1(C)SC2N(C(=O)C23CC=C(C(=O)Oc2ccc4ccccc4c2)C3C(=O)c2ccccc2)C1C(=O)OC(c1ccccc1)c1ccccc1 (centres unmarked) [Compound 9d, (1’R,2’R)-Benzhydryl spiro[(2-benzoyl-3-(2-naphthoxycarbonyl)cyclopent-3-ene)-1’,6-penicillanate]]	38	–	–	–	54	–
